Values of other authors in patent US10184942B2, “Natriuretic peptide receptor as a biomarker for diagnosis and prognosis of cancer” (UNIVERSITY OF SOUTH FLORIDA, priority 2011, dated 2019).

System: PCa cells
Settings: in vitro and in mice

VD: vessel dilator, an ANP prohormone peptide (EVVPPQVLSEPNEEAGAALSPLPEVPPWTGEVSPAQR; Vessel dilator; UniProt P01160 56-92, looked up)
proliferation of PCa cells: inhibit the proliferation

CC[C@H](C)[C@@H]1NC(=O)[C@H](CCCNC(=N)N)NC(=O)[C@H](CC(=O)O)NC(=O)[C@H](CCSC)NC(=O)[C@H](CCCNC(=N)N)NC(=O)CNC(=O)CNC(=O)[C@H](Cc2ccccc2)NC(=O)[C@@H](NC(=O)[C@H](CO)NC(=O)[C@H](CO)NC(=O)[C@H](CCCNC(=N)N)NC(=O)[C@H](CCCNC(=N)N)NC(=O)[C@H](CC(C)C)NC(=O)[C@@H](N)CO)CSSC[C@@H](C(=O)N[C@@H](CC(N)=O)C(=O)N[C@@H](CO)C(=O)N[C@@H](Cc2ccccc2)C(=O)N[C@@H](CCCNC(=N)N)C(=O)N[C@@H](Cc2ccc(O)cc2)C(=O)O)NC(=O)CNC(=O)[C@H](CC(C)C)NC(=O)CNC(=O)[C@H](CO)NC(=O)[C@H](CCC(N)=O)NC(=O)[C@H](C)NC(=O)CNC1=O [ANP, atrial natriuretic peptide]
proliferation of PCa cells: inhibit the proliferation
